From patent publication US20030004172A1, “Fused pyrimidinone matrix metalloproteinase inhibitors” (priority 2001, published 2003) come the findings set out here.

By IC50 is commonly meant the point on the concentration scale where inhibition reaches its midpoint. The term melting point denotes the temperature, or range, at which the solid turns liquid.

Some results are limits rather than exact numbers.

For one series, the target named is MMP-13CD (catalytic domain of collagenase-3) (Homo sapiens, UniProt P45452). Nature of the series: Thiopeptolide substrate hydrolysis inhibition assay, MMP-13CD. Type of series: biochemical. To be noted: Table I; thiopeptolide substrate, HEPES pH 7.0, 22° C.; read-out: MMP-13CD IC50. An excerpt: Thiopeptolide substrates show virtually no decomposition or hydrolysis at or below neutral pH in the absence of a matrix metalloproteinase enzyme.
For the compound `Cc1c(C(=O)OCc2ccccc2)sc2[nH]c(=O)n(CCc3ccccc3)c(=O)c12` [Example 5, 5-Methyl-2,4-dioxo-3-phenylethyl-1,2,3,4-tetrahydro-thieno[2,3-d]pyrimidine-6-carboxylic acid benzyl ester], the IC50 worked out at 51000 nM.

For `COc1ccc(CNC(=O)c2cc3c(=O)n(Cc4ccc(/C(N)=N/O)cc4)c(=O)n(C)c3s2)cc1` [Example 220, 3-[4-(N-Hydroxycarbamimidoyl)-benzyl]-1-methyl-2,4-dioxo-1,2,3,4-tetrahydro-thieno[2,3-d]pyrimidine-6-carboxylic acid 4-methoxy-benzylamide], the IC50 was determined as 61 nM.

Take `Cc1ccc(-n2c(=O)[nH]c3sc(C(=O)OCc4ccccc4)c(C)c3c2=O)cc1` [Example 7, 5-Methyl-2,4-dioxo-3-p-tolyl-1,2,3,4-tetrahydro-thieno[2,3-d]-6-carboxylic acid benzyl ester]: the IC50 stood at 10000 nM.

For `COC(=O)/C=C/Cn1c(=O)c2cc(C(=O)NCc3ccc(OC)cc3)sc2n(C)c1=O` [Example 225, (E)-4-[6-(4-Methoxy-benzylcarbamoyl)-1-methyl-2,4-dioxo-1,4-dihydro-2H-thieno[2,3-d]pyrimidin-3-yl]-but-2-enoic acid methyl ester], the IC50 was found to be 225 nM.

For `O=C(NCc1ccccc1)c1cc2c(=O)n(Cc3ccccc3)c(=O)[nH]c2s1` [Example 3, 3-Benzyl-2,4-dioxo-1,2,3,4-tetrahydro-thieno[2,3-d]pyrimidine-6-carboxylic acid benzyl amide], the half-inhibitory concentration (IC50) was 30000 nM.

In the case of `COc1ccc(CNC(=O)c2cc3c(=O)n(CCS(=O)(=O)c4ccc(Cl)cc4)c(=O)n(C)c3s2)cc1` [Example 247, 3-[2-(4-Chloro-benzenesulfonyl)-ethyl]-1-methyl-2,4-dioxo-1,2,3,4-tetrahydro-thieno[2,3-d]pyrimidine-6-carboxylic acid 4-methoxy-benzylamide], the IC50 came to 7200 nM.

On to `Cn1c(=O)n(Cc2ccccc2)c(=O)c2cc(C(=O)OCCC(c3ccccc3)c3ccccc3)sc21` [Example 205, 3-Benzyl-1-methyl-2,4-dioxo-1,2,3,4-tetrahydro-thieno[2,3-d]pyrimidine-6-carboxylic acid 3,3-diphenyl-propyl ester], for which the IC50 turned out to be 19000 nM.

For the compound `COc1cccc(CNC(=O)c2cc3c(=O)n(CCSc4ccccc4)c(=O)n(C)c3s2)c1` [Example 287], the IC50 came to 1900 nM.

For the compound `COc1ccc(CNC(=O)c2cc3c(=O)n(Cc4ccc(C(=O)OC(C)(C)C)cc4)c(=O)n(C)c3s2)cc1OC` [Example 53, 4-[6-(3,4-Dimethoxy-benzylcarbamoyl)-1-methyl-2,4-dioxo-1,4-dihydro-2H-thieno[2,3-d]pyrimidin-3-ylmethyl]-benzoic acid tert-butyl ester], the IC50 is 30000 nM.

On to `C=CCCCCn1c(=O)c2cc(C(=O)OCc3ccccc3)sc2n(C)c1=O` [Example 124, 3-Hex-5-enyl-1-methyl-2,4-dioxo-1,2,3,4-tetrahydro-thieno[2,3-d]pyrimidine-6-carboxylic acid benzyl ester], for which the IC50 was determined as 110 nM.

As to `COc1ccc(CNC(=O)c2cc3c(=O)n(Cc4ccc(S(=O)(=O)N(C)C)cc4)c(=O)n(C)c3s2)cc1` [Example 62, 3-(4-Dimethylsulfamoyl-benzyl)-1-methyl-2,4-dioxo-1,2,3,4-tetrahydro-thieno[2,3-d]pyrimidine-6-carboxylic acid 4-methoxy-benzylamide], the IC50 amounted to 53.5 nM.

For the compound `Cn1c(=O)n(Cc2ccccc2)c(=O)c2cc(C(=O)OCc3ccc(Cl)c(Cl)c3)sc21` [Example 204, 3-Benzyl-1-methyl-2,4-dioxo-1,2,3,4-tetrahydro-thieno[2,3-d]pyrimidine-6-carboxylic acid 3,4-dichloro-benzyl ester], the IC50 was 72 nM.

Turning to `COc1ccc(CNC(=O)c2cc3c(=O)n(CCS(=O)(=O)c4ccccc4)c(=O)n(C)c3s2)cc1` [Example 266], the IC50 stood at 4000 nM.

In the case of `COc1ccc(CNC(=O)c2cc3c(=O)n(Cc4ccccc4)c(=O)n(C)c3s2)cc1OC` [Example 324, 3-Benzyl-1-methyl-2,4-dioxo-1,2,3,4-tetrahydro-thieno[2,3-d]pyrimidine-6-carboxylic acid 3,4-dimethoxy-benzylamide], the IC50 is over 100000 nM.

Consider `Cn1c(=O)n(Cc2ccccc2)c(=O)c2cc(C(=O)NCC(c3ccccc3)c3ccccc3)sc21` [Example 347, 3-Benzyl-1-methyl-2,4-dioxo-1,2,3,4-tetrahydro-thieno[2,3-d]pyrimidine-6-carboxylic acid (2,2-diphenyl-ethyl)-amide], for which the concentration for half-maximal inhibition (IC50) amounted to 16000 nM.

For the compound `COc1cccc(CNC(=O)c2cc3c(=O)n(Cc4ccc(OC(F)(F)F)cc4)c(=O)n(C)c3s2)c1` [Example 83, 1-Methyl-2,4-dioxo-3-(4-trifluoromethoxy-benzyl)-1,2,3,4-tetrahydro-thieno[2,3-d]pyrimidine-6-carboxylic acid 3-methoxy-benzylamide], the IC50 was 140 nM.

On to “3-(4-Methoxycarboxyl-butyl)-1-methyl-2,4-dioxo-1,2,3,4-tetrahydro-thieno[2,3-d]pyrimidine-6-carboxylic acid benzyl ester [Example 141]”, for which the IC50 is 150 nM.

Take `COc1cccc(COC(=O)c2cc3c(=O)n(Cc4ccc(C#N)cc4)c(=O)[nH]c3s2)c1` [Example 66, 3-(4-Cyano-benzyl)-2,4-dioxo-1,2,3,4-tetrahydro-thieno[2,3-d]pyrimidine-6-carboxylic acid 3-methoxy-benzyl ester]: the IC50 amounted to 27.5 nM.

Turning to `Cn1c(=O)n(Cc2ccncc2)c(=O)c2cc(C(=O)OCc3ccccc3)sc21` [Example 308, 1-Methyl-2,4-dioxo-3-pyridin-4-ylmethyl-1,2,3,4-tetrahydro-thieno[2,3-d]pyrimidine-6-carboxylic acid benzyl ester], the IC50 came out at 7.15 nM.

As for `COc1cccc(CNC(=O)c2cc3c(=O)n(Cc4ccc(I)cc4)c(=O)n(C)c3s2)c1` [Example 61, 3-(4-Iodo-benzyl)-1-methyl-2,4-dioxo-1,2,3,4-tetrahydro-thieno[2,3-d]pyrimidine-6-carboxylic acid 3-methoxy-benzylamide], the IC50 was 45 nM.

As for `Cn1c(=O)n(Cc2ccccc2)c(=O)c2cc(C(=O)NCc3ccc(F)c(C(F)(F)F)c3)sc21` [Example 360, 3-Benzyl-1-methyl-2,4-dioxo-1,2,3,4-tetrahydro-thieno[2,3-d]pyrimidine-6-carboxylic acid 4-fluoro-3-trifluoromethyl-benzylamide], the IC50 was determined as 270 nM.

For the compound `COc1cccc(CNC(=O)c2cc3c(=O)n(Cc4ccccc4)c(=O)n(C)c3s2)c1` [Example 343, 3-Benzyl-1-methyl-2,4-dioxo-1,2,3,4-tetrahydro-thieno[2,3-d]pyrimidine-6-carboxylic acid 3-methoxy-benzylamide], the IC50 was found to be 44 nM.

Turning to `Cn1c(=O)n(Cc2ccccc2)c(=O)c2cc(C(=O)OCc3cccc(Oc4ccccc4)c3)sc21` [Example 182, 3-Benzyl-1-methyl-2,4-dioxo-1,2,3,4-tetrahydro-thieno[2,3-d]pyrimidine-6-carboxylic acid 3-phenoxy-benzyl ester], the IC50 was found to be 8600 nM.

Take `Cn1c(=O)n(Cc2ccc(C(=O)O)c(O)c2)c(=O)c2cc(C(N)=O)sc21` [Example 251]: the IC50 came to 655 nM.

In the case of `COc1ccc(CNC(=O)c2cc3c(=O)n(Cc4ccc(-c5noc(=O)[nH]5)cc4)c(=O)n(C)c3s2)cc1` [Example 221, 1-Methyl-2,4-dioxo-3-[4-(5-oxo-4,5-dihydro-1,2,4-oxadiazol-3-yl)-benzyl]-1,2,3,4-tetrahydro-thieno[2,3-d]pyrimidine-6-carboxylic acid 4-methoxy-benzylamide], the IC50 was found to be 4.6 nM.

As for `Cn1c(=O)n(Cc2ccc(C(=O)O)cc2)c(=O)c2cc(C(=O)NCc3ccc(Cl)cc3)sc21` [Example 58, 4-[6-(4-Chloro-benzylcarbamoyl)-1-methyl-2,4-dioxo-1,4-dihydro-2H-thieno[2,3-d]pyrimidin-3-ylmethyl]-benzoic acid], the IC50 was found to be 11.5 nM.

For the compound `Cn1c(=O)n(Cc2ccc(C(=O)OC(C)(C)C)cc2)c(=O)c2cc(C(=O)NCc3ccc(Br)cc3)sc21` [Example 56, 4-[6-(4-Bromo-benzylcarbamoyl)-1-methyl-2,4-dioxo-1,4-dihydro-2H-thieno[2,3-d]pyrimidin-3-ylmethyl]-benzoic acid tert-butyl ester], the IC50 worked out at 30000 nM.

`COc1cccc(CNC(=O)c2cc3c(=O)n(Cc4ccc(N)nc4)c(=O)n(C)c3s2)c1` [Example 384, 3-(6-Amino-pyridin-3-ylmethyl)-1-methyl-2,4-dioxo-1,2,3,4-tetrahydro-thieno[2,3-d]pyrimidine-6-carboxylic acid 3-methoxy-benzylamide]: the IC50 was 660 nM.

Consider `COc1cccc(CNC(=O)c2cc3c(=O)n(Cc4ccc(C(=O)OCCN(C)C)cc4)c(=O)n(C)c3s2)c1` [Example 68, 4-[6-(3-Methoxy-benzylcarbamoyl)-1-methyl-2,4-dioxo-1,4-dihydro-2H-thieno[2,3-d]pyrimidin-3-ylmethyl]-benzoic acid 2-dimethylamino-ethyl ester], for which the IC50 is 63.5 nM.

Tested on in another series: not given
Assay: not given
Settings: not given
Compound `COc1ccc(CNC(=O)c2cc3c(=O)n(CC#N)c(=O)n(C)c3s2)cc1` [Example 223, 3-Cyanomethyl-1-methyl-2,4-dioxo-1,2,3,4-tetrahydro-thieno[2,3-d]pyrimidine-6-carboxylic acid 4-methoxy-benzylamide] gave a melting point of 180 to 183 °C.

For the compound `Cc1c(C(=O)OCc2ccccc2)sc2[nH]c(=O)n(CCc3ccccc3)c(=O)c12` [Example 5, 5-Methyl-2,4-dioxo-3-phenylethyl-1,2,3,4-tetrahydro-thieno[2,3-d]pyrimidine-6-carboxylic acid benzyl ester], the melting point is 207 to 209 °C.

Take `COc1ccc(CNC(=O)c2cc3c(=O)n(Cc4ccc(/C(N)=N/O)cc4)c(=O)n(C)c3s2)cc1` [Example 220, 3-[4-(N-Hydroxycarbamimidoyl)-benzyl]-1-methyl-2,4-dioxo-1,2,3,4-tetrahydro-thieno[2,3-d]pyrimidine-6-carboxylic acid 4-methoxy-benzylamide]: the melting point is 226 to 228 °C (dec.).

The compound `Cc1ccc(-n2c(=O)[nH]c3sc(C(=O)OCc4ccccc4)c(C)c3c2=O)cc1` [Example 7, 5-Methyl-2,4-dioxo-3-p-tolyl-1,2,3,4-tetrahydro-thieno[2,3-d]-6-carboxylic acid benzyl ester] gave a melting point of 267 to 269 °C.

For `Cn1c(=O)n(Cc2ccccc2)c(=O)c2cc(C(=O)OCc3ccccc3)sc21` [Example 9, 3-Benzyl-1-methyl-2,4-dioxo-1,2,3,4-tetrahydro-thieno[2,3-d]pyrimidine-6-carboxylic acid benzyl ester], the melting point was 143 to 145 °C.

For `COC(=O)/C=C/Cn1c(=O)c2cc(C(=O)NCc3ccc(OC)cc3)sc2n(C)c1=O` [Example 225, (E)-4-[6-(4-Methoxy-benzylcarbamoyl)-1-methyl-2,4-dioxo-1,4-dihydro-2H-thieno[2,3-d]pyrimidin-3-yl]-but-2-enoic acid methyl ester], the melting point lay in the range of 169 to 171 °C.

On to `O=C(NCc1ccccc1)c1cc2c(=O)n(Cc3ccccc3)c(=O)[nH]c2s1` [Example 3, 3-Benzyl-2,4-dioxo-1,2,3,4-tetrahydro-thieno[2,3-d]pyrimidine-6-carboxylic acid benzyl amide], for which the melting point was over 255 °C.
